According to publication PMC7356157, “Shorter Antibacterial Peptide Having High Selectivity for E. coli Membranes and Low Potential for Inducing Resistance” (Microorganisms, 2020):
Values after ≈ are worked out from the molar mass of the structure shown. Like-named read-outs stand apart in the source and are kept apart here. No end group written: not given here.

Key:
[1] = system: E. coli clinical isolate 44; assay: Resistance profile of clinical isolate (VITEK-2); assay type: cell-based; settings: Escherichia coli, isolate from blood
Description: (§1) Approximately 50 bacterial samples were then collected from E. coli-infected patients for evaluating activity of the peptides against some clinical isolates. These samples were identified and biochemically and metabolically characterised using the VITEK-2 equipment. Isolates were profiled regarding their resistance or susceptibility to a panel of conventionally used antibiotics.

[2] = system: E. coli clinical isolate 40; assay: Resistance profile of clinical isolate (VITEK-2); assay type: cell-based; settings: Escherichia coli, isolate from blood
Description: as §1

[3] = system: E. coli clinical isolate 4; assay: Resistance profile of clinical isolate (VITEK-2); assay type: cell-based; settings: Escherichia coli, isolate from urine
Description: as §1

[4] = system: human red blood cells (hRBC); assay: Haemolytic activity (MHC); assay type: cell-based; settings: 5% v/v hRBC in 1X PBS, 200–0.39 µM, 1 h, 37 °C, absorbance 560 nm
Protocol: A haemolytic activity assay was used for determining whether peptides acted on hRBC membrane by calculating the minimum haemolytic concentration (MHC). Briefly, 100 µL serial dilutions of peptides were incubated in a 96-well plate with an equal volume of a fresh hRBC suspension at 5% v/v in 1X PBS (200–0.39 µM final peptide concentrations). The samples were spun at 1000× g for 5 min after having been incubated at 37 °C for 1 h and a Multiskan spectrometer (Thermo Fisher) was used for measuring 100 µL supernatant absorbance at 560 nm. Treated hRBC absorbance 0.1% Triton X-100 or 100% haemolysis was used as positive control.

[5] = system: E. coli ATCC 25922; assay type: cell-based; settings: for MIC E. coli 25922: broth microdilution, MHB, ~5 × 10^5 CFU/mL, 18 h, 37 °C, OD 620 nm, 100 to 0.2 µM; for MIC against E. coli 25922, MHB: no serum
[6] = system: P. aeruginosa 27853; assay: MIC by broth microdilution; assay type: cell-based; settings: MHB, 18 h, 37 °C
[7] = system: E. coli 25922; assay: Antibacterial activity in the presence of human sera; assay type: cell-based; settings: for MIC against E. coli 25922, Serum (without Pre-Incubation): peptide diluted in fresh human sera (100%), then inoculum in MHB ~5 × 10^5 CFU/mL, 18 h, 37 °C
Protocol: The second assay involved peptide dilution in fresh human sera (100%) pre-incubated for 6 h at 37 °C in a humid chamber before putting them in contact with the bacterial inoculum diluted in MHB (~5 × 10^5 CFU/mL). The assay was incubated and read as mentioned in the microdilution section.

[8] = system: E. coli ATCC 11775; assay type: cell-based; settings: broth microdilution
[9] = system: E. coli 35218 (ampicillin-resistant ATCC 35218 strain); assay type: cell-based; settings: broth microdilution
[10] = system: E. coli ML35 43827; assay type: cell-based; settings: broth microdilution
[11] = system: E. coli; settings: for FIC Index: peptide + ciprofloxacin, lowest checkerboard FIC index (method 3); for FIC P (peptide): with ciprofloxacin
Protocol: (§4) The checkerboard method was used for evaluating peptide antibacterial activity in combination with antibiotics [43]. […] Absorbance was measured at 620 nm and individual peptide and antibiotic MIC and combined MIC were obtained. […] The fractional inhibitory concentration index (FICI) was then calculated as the sum of peptide FIC + antibiotic FIC. A ≤ 0.5 FICI indicated synergy, 0.5 to ≤4 FICI indifference, and >4 FICI antagonism [45].
(§5) The results were interpreted by taking the lowest checkerboard FIC index (previously reported method 3) [44].

[12] = system: E. coli ML35 43827; assay: Bactericidal activity (MBC); assay type: cell-based
Protocol: (§2) Bactericidal activity was evaluated by sowing an aliquot of Luria Bertani agar (LBA) in the wells where no growth had been detected in the MIC assay.

[13] = system: E. coli ATCC 25922; assay: Bactericidal activity (MBC); assay type: cell-based; settings: aliquots of no-growth MIC wells on LBA, 18 h, 37 °C; kills 99.9%
Protocol: as §2

[14] = system: E. coli N°44 (clinical isolate); settings: clinical isolate from blood, ESBL (+), broth microdilution
Protocol: (§3) The standard broth microdilution method was used for determining the peptides’ MIC [41]. […] Bacteria in Müller–Hinton broth (MHB) were used as negative control. […] The MIC was determined as the lowest peptide concentration at which bacterial growth was not detected.
as §1

[15] = system: E. coli N°40 (clinical isolate); settings: clinical isolate from blood, broth microdilution
Protocol: as §3, §1

[16] = system: E. coli N°4 (clinical isolate); settings: clinical isolate from urine, broth microdilution
Protocol: as §3, §1

[17] = system: E. coli N°44 (clinical isolate); assay type: cell-based
Protocol: as §2
Approximately 50 bacterial samples were then collected from E. coli-infected patients for evaluating activity of the peptides against some clinical isolates. These samples were identified and biochemically and metabolically characterised using the VITEK-2 equipment. Isolates were profiled regarding their resistance or susceptibility to a panel of conventionally used antibiotics. Three E. coli isolates having different resistance profiles were then selected following such characterisation (Appendix A): • Isolate 4 (from urine): extended spectrum beta-lactamase (ESBL) (-), resistant to ampicillin, quinolones and co-trimoxazole. • Isolate 40 (from blood): ESBL (-), resistant to ampicillin, 1st-generation cephalosporins and co-trimoxazole. • Isolate 44 (from blood): ESBL (+), resistant to aminoglycosides, quinolones, β-lactams (including 1st-, 3rd- and 4th-generation cephalosporins).

[18] = system: E. coli 35218; assay type: cell-based
Protocol: as §2

[19] = system: E. coli; settings: for FIC Index: peptide + gentamicin, lowest checkerboard FIC index (method 3); for FIC P (peptide): with gentamicin
Protocol: as §4, §5

[20] = system: E. coli ML35; assay: Permeabilising internal membrane (ONPG); assay type: cell-based; settings: 1× MIC, ONPG, 405 nm, 4.5 h

Compound | MIC [1] [µg/mL] | MIC [2] [µg/mL] | MIC [3] [µg/mL] | MHC (minimum haemolytic concentration) [4] [µM] | MIC E. coli 25922 [5] [µM] | MIC P. aeruginosa 27853 [6] [µM] | further results
CO[C@@]1(NC(=O)Cc2cccs2)C(=O)N2C(C(=O)O)=C(COC(N)=O)CS[C@@H]21 [Cefoxitin] | ≤ 4 | ≤ 4 | ≤ 4 | – | – | – | –
KMKKALQY-NH2 [Peptide 35409-16] | – | – | – | >200 | >100 | >100 | –
C[C@@H](O)[C@H]1C(=O)N2C(C(=O)O)=C(S[C@@H]3CN[C@H](C(=O)N(C)C)C3)[C@H](C)[C@H]12 [Meropenem] | ≤ 0.25 | ≤ 0.25 | ≤ 0.25 | – | – | – | –
NCC[C@H](O)C(=O)N[C@@H]1C[C@H](N)[C@@H](O[C@H]2O[C@H](CN)[C@@H](O)[C@H](O)[C@H]2O)[C@H](O)[C@H]1O[C@H]1O[C@H](CO)[C@@H](O)[C@H](N)[C@H]1O [Amikacin] | 32 (≈ 54.6 µM) | ≤ 2 | ≤ 2 | – | – | – | –
ALQYIKLLKE-NH2 [Peptide 35409-6] | – | – | – | >200 | >100 | >100 | –
CCn1cc(C(=O)O)c(=O)c2ccc(C)nc21 [Nalidixic acid] | ≥ 32 | ≤ 2 | ≥ 32 | – | – | – | –
CO/N=C(\C(=O)N[C@@H]1C(=O)N2C(C(=O)[O-])=C(C[N+]3(C)CCCC3)CS[C@H]12)c1csc(N)n1 [Cefepime] | – | – | ≤ 1 | – | – | – | –
RYRRKKKMKK-NH2 [Peptide 35409-11] | – | – | – | >200 | >100 | >100 | –
RKKKMKKALQY-NH2 [Peptide 35409-15] | – | – | – | 200 | >100 | >100 | –
YIKLLKE-NH2 [Peptide 35409-7] | – | – | – | >200 | >100 | >100 | –
C[C@@H](O)[C@H]1C(=O)N2C(C(=O)O)=C(SCCN=CN)C[C@H]12 [Imipenem] | ≤ 1 | ≤ 1 | ≤ 1 | – | – | – | –
RYRRKKKMKKALQY-NH2 [Peptide 35409-9] | – | – | – | >200 | >100 | >100 | –
KKMKKALQYIKLLKE-NH2 [Peptide 35409-3] | – | – | – | >200 | >100 | >100 | –
RYRRKKKMKKALQYIKL-NH2 [Peptide 35409-8] | – | – | – | >200 | >100 | >100 | –
O=C(O)c1cn(C2CC2)c2cc(N3CCNCC3)c(F)cc2c1=O [Ciprofloxacin, ciprofloxacin, reference compound] | – | – | – | – | – | – | MIC ([7]; Escherichia coli, 25922, read-out: MIC against E. coli 25922, Serum (6 h Pre-Incubation) (ciprofloxacin), fresh human sera (100%), 6 h pre-incubation at 37 °C): 0.004 µg/mL
CC1(C)S[C@@H]2[C@H](NC(=O)[C@H](N)c3ccccc3)C(=O)N2[C@H]1C(=O)O [Ampicillin, ampicillin, reference compound] | ≥ 32 | ≥ 32 | ≥ 32 | – | – | – | MIC E. coli 11775 (antibiotics) [8]: <0.016 µg/mL; MIC E. coli 35218 (antibiotics) [9]: >16 µg/mL; MIC E. coli ML35 43827 (antibiotics) [10]: <0.016 µg/mL
CC(C)(O/N=C(\C(=O)N[C@@H]1C(=O)N2C(C(=O)[O-])=C(C[n+]3ccccc3)CS[C@H]12)c1csc(N)n1)C(=O)O [Ceftazidime] | ≥ 64 | ≤ 1 | ≤ 1 | – | – | – | –
KMKKALQYIKLLKE-NH2 [Peptide 35409-4] | – | – | – | >200 | 100 | >100 | FIC Index [11]: 3; FIC P (peptide) [11]: 1; MBC E. coli ML35 43827 [12]: 50 µM; MBC E. coli 25922 [13]: 100 µM; MIC against E. coli 25922, Serum (without Pre-Incubation) [7]: 100 µM; MIC E. coli N°44 [14]: 100 µM; MIC E. coli N°40 [15]: >100 µM; MIC E. coli N°4 [16]: >100 µM; MBC E. coli N°44 [17]: > 100 µM; MIC E. coli 11775 [8]: >100 µM; MIC E. coli 35218 [9]: 25 µM; MIC against E. coli 25922, MHB [5]: 100 µM; MIC E. coli ML35 43827 [10]: 25 µM; MBC E. coli 35218 [18]: 50 µM; FIC Index [19]: 0.75; FIC P (peptide) [19]: 0.25
KKMKKALQYIKL-NH2 [Peptide 35409-14] | – | – | – | 100 | >100 | >100 | –
RYRRKKKMKKA-NH2 [Peptide 35409-10] | – | – | – | >200 | >100 | >100 | –
O=C1CN(/N=C/c2ccc([N+](=O)[O-])o2)C(=O)N1 [Nitrofurantoin] | ≤ 16 | ≤ 16 | ≤ 16 | – | – | – | –
KKKMKKALQYIKLLKE-NH2 [Peptide 35409-2] | – | – | – | >200 | 25 | >100 | FIC Index [11]: 3; FIC P (peptide) [11]: 1; MBC E. coli ML35 43827 [12]: 12.5 µM; MBC E. coli 25922 [13]: 25 µM; MIC against E. coli 25922, Serum (without Pre-Incubation) [7]: 25 µM; MIC E. coli N°44 [14]: 50 µM; MIC E. coli N°40 [15]: 50 µM; MIC E. coli N°4 [16]: >100 µM; MBC E. coli N°44 [17]: > 100 µM; MIC E. coli 11775 [8]: >100 µM; MIC E. coli 35218 [9]: 12.5 µM; MIC against E. coli 25922, MHB [5]: 25 µM; MIC E. coli ML35 43827 [10]: 6 µM; MBC E. coli 35218 [18]: 25 µM; FIC Index [19]: 0.75; FIC P (peptide) [19]: 0.25
RYRRKKK-NH2 [Peptide 35409-12] | – | – | – | >200 | >100 | >100 | –
MKKALQYIKLLKE-NH2 [Peptide 35409-5] | – | – | – | >200 | >100 | >100 | –
CO/N=C(\C(=O)N[C@@H]1C(=O)N2C(C(=O)O)=C(COC(C)=O)CS[C@H]12)c1csc(N)n1 [Cefotaxime] | ≥ 64 | ≤ 1 | ≤ 1 | – | – | – | –
cecropin P1 (SWLSKTAKKLENSAKKRISEGIAIAIQGGPR; UniProt P14661 14-44, looked up) [positive permeabilisation control peptide, reference compound] | – | – | – | – | – | – | permeabilisation of E. coli internal membrane [20]: capable of inducing a high rate of permeabilisation for the first 30 min of incubation
CC(=O)OCC1=C(C(=O)O)N2C(=O)[C@@H](NC(=O)Cc3cccs3)[C@H]2SC1 [Cephalothin] | ≥ 64 | 16 (≈ 40.4 µM) | 4 (≈ 10.1 µM) | – | – | – | –
